According to patent publication US20180320217A1, “METHODS FOR SAMPLING AND MEASURING ORAL LAVAGE PROTEINS” (The Procter & Gamble Company, priority 2017, published 2018):
Where a name gives a salt, the structure may show the parent alone.

Legend:
[1] = system: oral lavage; assay: Formation of formazan dyes: oral lavage, malate and 1-Methoxy PMS (TABLE 20); format: biochemical, human; settings: oral lavage, malate and 1-Methoxy PMS, mean of three experiments
[2] = system: oral lavage; assay: Formation of formazan dyes: oral lavage and diaphorase, not malate (TABLE 11); format: biochemical, human
[3] = Formation of formazan dyes: control buffer and 1-Methoxy PMS, absence of malate (TABLE 21); format: biochemical; settings: for Absorbance, formation of formazan dyes (Means): control buffer and 1-Methoxy PMS, absence of malate, mean of three experiments
[4] = system: diaphorase; assay: Effect of concentrations of tetrazolium salts on formation of formazan dyes (FIGS. 4A-4G); format: biochemical; settings: 15 mM NADH+H, 20 μg diaphorase, pH 7.5; FIGS. 4A to 4G
Experimental: On the idea that higher concentrations of tetrazolium salts in the assay buffer would likely result in more formazan dyes in the reaction, various concentrations of tetrazolium salts were added to a reaction buffer and the formation of formazan dyes were measured at 0, 30 and 60 minutes. […] The reactions were performed at room temperature. Absorbance was taken at 0, 30 and 60 minutes.

[5] = system: diaphorase; assay: Formation of formazan dyes: only diaphorase, not malate (TABLE 13); format: biochemical, Clostridium kluyveri; settings: mean of three experiments

## Cc1nc(-[n+]2nc(-c3cccc(OCC(=O)O)c3)nn2-c2ccc(S(=O)(=O)[O-])cc2)sc1C [MTS, 3-(4,5-dimethylthiazol-2-yl)-5-(3-carboxymethoxyphenyl)-2-(4-sulfophenyl)-2H-tetrazolium, inner salt]
[1]; 0 h
  Absorbance, formation of formazan dyes (Means): 0.78
[1]; 1 h
  Absorbance, formation of formazan dyes (Means): 1.33
[1]; 2 h
  Absorbance, formation of formazan dyes (Means): 1.69
[1]; 3 h
  Absorbance, formation of formazan dyes (Means): 1.90
[1]; 4 h
  Absorbance, formation of formazan dyes (Means): 1.87
[1]; 6 h
  Absorbance, formation of formazan dyes (Means): 2.27
[1]; 8 h
  Absorbance, formation of formazan dyes (Means): 2.60
[1]; 10 h
  Absorbance, formation of formazan dyes (Means): 2.89
[1]; 12 h
  Absorbance, formation of formazan dyes (Means): 3.22
[2]; oral lavage and diaphorase, not malate, 0 h
  Formation of formazan dyes, absorbance, Means 0 h: 0.70
[2]; oral lavage and diaphorase, not malate, 1 h
  Formation of formazan dyes, absorbance, Means 1 h: 0.86
[2]; oral lavage and diaphorase, not malate, 2 h
  Formation of formazan dyes, absorbance, Means 2 h: 0.91
[2]; oral lavage and diaphorase, not malate, 3 h
  Formation of formazan dyes, absorbance, Means 3 h: 1.00
[2]; oral lavage and diaphorase, not malate, 4 h
  Formation of formazan dyes, absorbance, Means 4 h: 1.13
[2]; oral lavage and diaphorase, not malate, 6 h
  Formation of formazan dyes, absorbance, Means 6 h: 1.18
[2]; oral lavage and diaphorase, not malate, 8 h
  Formation of formazan dyes, absorbance, Means 8 h: 1.21
[2]; oral lavage and diaphorase, not malate, 10 h
  Formation of formazan dyes, absorbance, Means 10 h: 1.25
[2]; oral lavage and diaphorase, not malate, 12 h
  Formation of formazan dyes, absorbance, Means 12 h: 1.27
[2]; pooled oral lavage of high bleeder group, diaphorase, no added malate (TABLE 11)
  reduction to formazan dyes by pooled oral lavage: changed to formazan dyes in a significant amount
[3]; 0 h
  Absorbance, formation of formazan dyes (Means): 0.36
[3]; 1 h
  Absorbance, formation of formazan dyes (Means): 0.42
[3]; 2 h
  Absorbance, formation of formazan dyes (Means): 0.41
[3]; 3 h
  Absorbance, formation of formazan dyes (Means): 0.43
[3]; 4 h
  Absorbance, formation of formazan dyes (Means): 0.43
[3]; 6 h
  Absorbance, formation of formazan dyes (Means): 0.48
[3]; 8 h
  Absorbance, formation of formazan dyes (Means): 0.59
[3]; 10 h
  Absorbance, formation of formazan dyes (Means): 0.63
[3]; 12 h
  Absorbance, formation of formazan dyes (Means): 0.66
[3]; control buffer, absence of malate (TABLE 21) or presence of malate (TABLE 22)
  conversion into colored formazan dyes in assay buffer containing 1-methoxy PMS: slowly catalyze the conversion of tetrazolium salts into colored formazan dyes
[4]
  concentration of tetrazolium salt at which absorbance reached peaks: around 1.5 mM
[5]; 0 h
  Absorbance, formation of formazan dyes (Means): 0.16
[5]; 1 h
  Absorbance, formation of formazan dyes (Means): 0.25
[5]; 2 h
  Absorbance, formation of formazan dyes (Means): 0.26
[5]; 3 h
  Absorbance, formation of formazan dyes (Means): 0.22
[5]; 4 h
  Absorbance, formation of formazan dyes (Means): 0.17
[5]; 6 h
  Absorbance, formation of formazan dyes (Means): 0.20
[5]; 8 h
  Absorbance, formation of formazan dyes (Means): 0.16
[5]; 10 h
  Absorbance, formation of formazan dyes (Means): 0.13
[5]; 12 h
  Absorbance, formation of formazan dyes (Means): 0.14
